Legend:
[1] = Acute porcine cardiopulmonary bypass (CPB) model, postoperative bleeding; assay type: in vivo; conditions: pigs
Experimental: A randomized, double-blinded study using an acute porcine cardiopulmonary bypass (CPB) model was used to investigate the effect of KPI185-1 on postoperative bleeding. Sixteen pigs (55-65 kg) underwent 60 minutes of hypothermic (28° C.) open-chest CPB with 30 minutes of cardioplegic cardiac arrest. Pigs were randomized against a control solution of physiological saline (NS; n=8) or KPI-185 (n=8) groups. During aortic cross-clamping, the tricuspid valve was inspected through an atriotomy which was subsequently repaired. Following reversal of heparin with protamine, dilateral thoracostomy tubes were placed and shed blood collected for 3 hours. Shed blood volume and hemoglobin (Hgb) loss were calculated from total chest tube output and residual intrathoracic blood at time of sacrifice.

[2] = CPB; cited from earlier work
activated factor XII = molecular target: T1, activated factor XII (Homo sapiens, UniProt P00748); conditions: cited from earlier work
T1 sequence (P00748 373-615 limits assumed): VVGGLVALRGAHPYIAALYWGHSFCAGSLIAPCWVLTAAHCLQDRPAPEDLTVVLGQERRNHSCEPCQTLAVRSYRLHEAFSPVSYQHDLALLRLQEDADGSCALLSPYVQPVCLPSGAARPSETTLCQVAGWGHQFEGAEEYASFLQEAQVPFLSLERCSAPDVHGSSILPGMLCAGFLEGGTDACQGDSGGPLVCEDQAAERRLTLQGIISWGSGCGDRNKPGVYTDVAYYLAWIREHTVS

elastase = conditions: cited from earlier work

Substance	Total Hgb loss ([1]; after CPB, p=0.0005 vs. saline)	Thoracostomy drainage Hgb ([1]; at 30 minutes, p=0.004 vs. control)	Thoracostomy drainage Hgb ([1]; at 60 minutes, p=0.0002 vs. control)	Total blood loss ([1]; shed blood collected for 3 hours after CPB plus residual intrathoracic blood, p=0.009 vs. saline)	blood loss following bypass [2]	neutrophil activation [2]	inhibition of activated factor XII (activated factor XII)	inhibition of elastase (elastase)
KPI (−4→57; M15A, S17F) DD185: KPI (−4→57) variant with M15A, S17F, found by phage display on kallikrein, expressed in yeast from pDD185	13.59±4.26 gm	4.41±1.45 gm/dl	5.26±1.04 gm/dl	245.75 ± 66.24 mL	–	–	–	–
aprotinin	–	–	–	–	significant reduction in blood loss	does not appear to significantly reduce neutrophil activation	does not inhibit activated factor XII	neither native aprotinin nor native KPI significantly inhibits elastase

From patent US6906033B2, “Protease inhibitor peptides” (SCIOS NOVA, Inc., priority 1995, dated 2005)
